{
  "source": "patent US20090239926A1",
  "about": "“METHODS FOR THE TREATMENT OF PSORIASIS OR PSORIATIC ARTHRITIS USING CYCLOPROPYL-N-CARBOXAMIDE” (priority 2008, published 2009)",
  "key": {"[1]": {"target": "T1, PDE6 from bovine retinal rod outer segments (Bos taurus, UniProt P11541+P23439)", "T1 construct": "PDE6 from bovine retinal rod outer segments; from tissue; host or cells: bovine retinal rod outer segments", "T1 sequence (P11541 2-856 limits assumed)": "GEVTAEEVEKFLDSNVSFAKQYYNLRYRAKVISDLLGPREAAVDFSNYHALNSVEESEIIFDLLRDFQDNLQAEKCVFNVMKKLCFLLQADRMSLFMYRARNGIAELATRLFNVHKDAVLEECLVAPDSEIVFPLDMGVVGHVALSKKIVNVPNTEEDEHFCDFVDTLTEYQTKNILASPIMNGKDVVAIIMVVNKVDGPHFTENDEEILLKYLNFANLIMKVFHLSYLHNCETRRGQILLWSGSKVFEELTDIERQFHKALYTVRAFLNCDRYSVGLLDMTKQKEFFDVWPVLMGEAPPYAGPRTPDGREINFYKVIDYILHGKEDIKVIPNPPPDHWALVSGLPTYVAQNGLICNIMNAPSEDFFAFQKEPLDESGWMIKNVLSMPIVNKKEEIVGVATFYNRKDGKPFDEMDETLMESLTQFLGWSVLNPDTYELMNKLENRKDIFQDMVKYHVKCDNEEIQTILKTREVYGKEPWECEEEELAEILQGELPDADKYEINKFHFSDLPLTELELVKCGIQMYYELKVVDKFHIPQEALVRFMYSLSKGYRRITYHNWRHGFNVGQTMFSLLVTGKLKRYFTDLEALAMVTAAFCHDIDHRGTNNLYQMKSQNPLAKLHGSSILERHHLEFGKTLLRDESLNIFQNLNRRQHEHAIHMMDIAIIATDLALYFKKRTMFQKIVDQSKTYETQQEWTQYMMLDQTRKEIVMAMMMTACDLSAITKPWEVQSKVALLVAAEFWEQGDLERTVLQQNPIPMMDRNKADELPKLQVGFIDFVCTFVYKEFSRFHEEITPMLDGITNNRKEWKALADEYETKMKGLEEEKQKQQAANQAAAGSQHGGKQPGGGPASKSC", "T1 sequence (P23439 2-850 limits assumed)": "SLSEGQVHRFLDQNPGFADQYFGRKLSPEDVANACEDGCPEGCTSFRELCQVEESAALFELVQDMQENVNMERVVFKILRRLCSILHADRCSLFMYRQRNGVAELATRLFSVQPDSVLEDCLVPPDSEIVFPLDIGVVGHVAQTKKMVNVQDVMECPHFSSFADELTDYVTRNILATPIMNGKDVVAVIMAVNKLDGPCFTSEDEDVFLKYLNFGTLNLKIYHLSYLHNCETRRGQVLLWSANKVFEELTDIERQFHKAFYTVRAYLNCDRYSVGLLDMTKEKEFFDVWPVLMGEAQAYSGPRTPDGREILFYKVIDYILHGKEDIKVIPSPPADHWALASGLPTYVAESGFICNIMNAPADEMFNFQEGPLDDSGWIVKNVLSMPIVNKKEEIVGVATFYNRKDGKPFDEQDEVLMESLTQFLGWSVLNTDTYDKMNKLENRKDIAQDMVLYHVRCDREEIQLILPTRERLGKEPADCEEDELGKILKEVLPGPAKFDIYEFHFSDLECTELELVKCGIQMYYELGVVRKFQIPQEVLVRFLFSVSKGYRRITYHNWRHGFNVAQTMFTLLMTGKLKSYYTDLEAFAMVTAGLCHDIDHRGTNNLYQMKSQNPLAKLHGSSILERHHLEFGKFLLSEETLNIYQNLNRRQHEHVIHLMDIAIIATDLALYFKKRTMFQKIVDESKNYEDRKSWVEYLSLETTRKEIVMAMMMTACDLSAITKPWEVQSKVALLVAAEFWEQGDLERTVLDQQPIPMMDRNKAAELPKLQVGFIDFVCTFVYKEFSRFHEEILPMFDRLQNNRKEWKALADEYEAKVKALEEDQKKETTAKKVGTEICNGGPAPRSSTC", "test": "Specificity: PDE6", "type": "biochemical", "method": "(§1) The specificity of Compound A for PDE4 was assessed by testing at a single concentration (10 μM) against bovine PDE1, human PDE2, PDE3 and PDE5 from human platelets, and PDE6 from bovine retinal rod outer segments."}, "[2]": {"tested_on": "PDE4 enzyme purified from U937 human monocytic cells", "test": "PDE4 inhibition", "type": "biochemical", "method": "PDE4 enzyme was purified from U937 human monocytic cells by gel filtration chromatography (Muller et al. 1998, Bioorg. & Med. Chem. Lett. 1998. 8 (19):2669-74). Phosphodiesterase reactions were carried out in 50 MM Tris HCl pH 7.5, 5 mM MgCl2, 1 μM cAMP, 10 nM [^3H]-cAMP for 30 min at 30, terminated by boiling, treated with 1 mg/ml snake venom, and separated using AG-lXS ion exchange resin (BioRad).\nas §1"}, "[3]": {"tested_on": "normal human skin xenotransplanted onto beige-SCID mice injected with psoriatic patient NK cells", "test": "Human NK cell-driven psoriasis model: human skin xenotransplanted onto beige-SCID mice", "type": "in vivo", "conditions": "5 mg/kg/day p.o., b.i.d., 14 days", "method": "Healthy human skin pieces having a width of 0.4 mm and surface area of 3×3 cm were provided from residual skin of routine plastic surgery procedures from the Plastic Surgery Department of the Rambam Medical Center, Isreal. In addition, blood samples from psoriatic patients were taken at a volume of 25 mL.\nTwenty-one (21) beige-severe combined immunodeficient mice (SCID) (weight about 20 g) were included in this study. Normal human skin was transplanted onto the beige-SCID mice as previously described by Nickoloff et al., 1995; Wrone-Smith, et al., 1996. A sample of each donor was transplanted onto […] so that the three treatment groups (n=7 mice/group) were homogenous.\nPBMC from the psoriatic patient blood were isolated and cultured in the presence of IL-2 (100 U/mL of media) for 14 days to activate the NK cells, as previously described by Gilhar et al., J. Invest. Dermatol. 2002, 119(2):384-91. Four weeks following the engraftment, each mouse was injected with 1×10^7 psoriatic patients activated allogeneic NK cells (1×10^7 cells injected/mouse, n=21). Two weeks following the injections, the mice were divided and treated, twice a day for 14 days. All compounds were dosed at 5 mg/kg/day, divided into b.i.d. doses. To perform p.o. administration, mice were held firmly by gently gripping their fur over the neck with thumb and index fingers and restraining the tail with the little finger. A volume of 0.05 mL of a 1 mg/ml aqueous solution of Compound A was administrated twice a day (b.i.d.) with a syringe through a blunt-ended curved feeding tube, which was inserted into the esophagus. The vehicle (negative) control groups received 0.05 mL (b.i.d.) of a 0.5% carboxymethylcellulose and 0.25% Tween 80. […] Two weeks after starting the treatments (4 weeks following the injections), the skins were harvested. Grafts were analyzed by histology and immunohistochemistry.\nDetermination of Epidermal Thickness: Skin graft histological assessment was performed by light microscopy both before and after transplantation and two blinded observers performed the evaluations. Epidermal thickness was determined with an ocular micrometer, at a minimum of 50 points along the epidermis selected to represent points of maximal and minimal thickness. Thickness of the suprapapillary plate was similarly measured at 50 points for each sample.\nImmunohistochemical Staining: Monoclonal antibodies to human antigens used were as follows for immunohistochemistry on frozen sections: anti-HLA-DR (Becton Dickenson, San Jose, Calif.), and anti-CD54 (ICAM-1) (Biodesign, Saco, Me.). Purified murine IgG was used as a control for the above antibodies. Immunohistochemistry was performed on OCT embedded specimens with a biotin-avidin system (Vectostain, Vector Laboratories, Burlingame, Calif.).\nGoat anti-human TNF-α (R&D Systems, Minneapolis, Minn.) was used on deparaffinized and peroxidase blocked slides. Sections were treated with citrate buffer, pH=6, in the microwave oven for 20 minutes. The sections were then cooled for 30 minutes at room temperature and blocked for non-specific binding as well as avidin-biotin. All washes were performed with phosphate-buffered saline-saponin. Anti-TNF-α was applied overnight at 4° C. Slides were then incubated with biotinylated rabbit anti goat-IgG (DAKO, Carpinteria, Calif.), followed by streptavidin horseradish peroxidase (HRP) (Jackson Immunoresearch, West Grove, Pa.). The color was developed with 3-amino-9-ethylcarbazole (AEC).\nScoring of Immunohistochemical Staining: Diffuse staining was defined as positive and intense expression of more than 50 percent of the epidermis versus focal staining which was defined as less than 50 percent of the epidermis. Focal staining may represent positive expression of very small areas.\nStatistical Analysis: Statistical analysis was carried out using the one-way ANOVA with a Bonferroni Multiple Comparison post-hoc test using Prism 4.00 (GraphPad Software; San Diego, Calif.)."}},
  "data": [
    {"molecule": "CCOc1cc([C@@H](CS(C)(=O)=O)N2Cc3cccc(NC(=O)C4CC4)c3C2=O)ccc1OC", "note": "[Compound A, cyclopropyl-N-{2-[(1S)-1-(3-ethoxy-4-methoxyphenyl)-2-(methylsulfonyl)ethyl]-3-oxoisoindoline-4-yl}carboxamide]", "values": [
      {"measurement": "inhibition at 10 µM", "setting": "[1]", "result": 17, "unit": "%"},
      {"measurement": "IC50", "setting": "[2]; 1 μM cAMP", "result": 100, "unit": "nM"},
      {"measurement": "PDE4 IC50 (from U937 cells)", "setting": "[2]; 1 μM cAMP", "result": 0.05, "unit": "µg/mL"},
      {"measurement": "PDE4 % inhibition", "setting": "[2]; at 10 μM", "result": 95, "unit": "%"},
      {"measurement": "HLA-DR staining: number of grafts (of 7) with Diffuse pattern", "setting": "[3]", "result": 4, "unit": "Diffuse"},
      {"measurement": "Histological features: Complete Recovery (grafts of 7)", "setting": "[3]", "result": "3/7"},
      {"measurement": "Histological features: Partial Recovery (grafts of 7)", "setting": "[3]", "result": "1/7"},
      {"measurement": "Histological features: Psoriasiform (grafts of 7)", "setting": "[3]", "result": "3/7"},
      {"measurement": "ICAM-1 staining: number of grafts (of 7) with Diffuse pattern", "setting": "[3]", "result": 3, "unit": "Diffuse"},
      {"measurement": "Recovery, partial or complete (grafts of 7)", "setting": "[3]", "result": "(4/7)"},
      {"measurement": "TNF-α staining: number of grafts (of 7) with Multiple TNF-α positive cells", "setting": "[3]", "result": 3, "unit": "Multiple"},
      {"measurement": "decrease in epidermal thickness compared to vehicle treated animals", "setting": "[3]", "result": "~50", "unit": "%"},
      {"measurement": "grafts (of 7) with ICAM-1 reduced to focal or negative expression", "setting": "[3]", "result": "4/7"},
      {"measurement": "grafts (of 7) with few or negative TNF-α expressing cells", "setting": "[3]", "result": "4/7"},
      {"measurement": "overall response rate (partial plus complete recovery from psoriasis features)", "setting": "[3]", "result": 57, "unit": "%"},
      {"measurement": "percentage of grafts with HLA-DR reduced to focal or negative expression", "setting": "[3]", "result": 43, "unit": "%"},
      {"measurement": "percentage of grafts with ICAM-1 reduced to focal or negative expression", "setting": "[3]", "result": 57, "unit": "%"},
      {"measurement": "percentage of grafts with focal HLA-DR expression", "setting": "[3]", "result": 14.3, "unit": "%"},
      {"measurement": "percentage of grafts with negative HLA-DR expression", "setting": "[3]", "result": 28.6, "unit": "%"},
      {"measurement": "percentage of grafts with reduced TNF-α expression (partial and complete recovery)", "setting": "[3]", "result": 57, "unit": "%"},
      {"measurement": "Epidermal Thickness, Mean", "setting": "[3]; mean of 7 grafts", "result": 736, "unit": "μm"},
      {"measurement": "Proliferation Index (Ki-67 positive keratinocytes), Mean", "setting": "[3]; mean of 7 grafts", "result": 26.2, "unit": "%"},
      {"measurement": "mean epidermal thickness", "setting": "[3]; mean of 7 mice", "result": 736, "unit": "microns"},
      {"measurement": "Epidermal Thickness of individual skin graft", "setting": "[3]; Patient 1", "result": 687, "unit": "μm"},
      {"measurement": "Histological Evaluation of individual skin graft", "setting": "[3]; Patient 1", "result": "Partial recovery w/"},
      {"measurement": "Proliferation Index of individual skin graft", "setting": "[3]; Patient 1", "result": 41.9, "unit": "%"},
      {"measurement": "Epidermal Thickness of individual skin graft", "setting": "[3]; Patient 2", "result": 1098, "unit": "μm"},
      {"measurement": "Histological Evaluation of individual skin graft", "setting": "[3]; Patient 2", "result": "Psoriasiform"},
      {"measurement": "Proliferation Index of individual skin graft", "setting": "[3]; Patient 2", "result": 47.4, "unit": "%"},
      {"measurement": "Epidermal Thickness of individual skin graft", "setting": "[3]; Patient 3", "result": 626, "unit": "μm"},
      {"measurement": "Histological Evaluation of individual skin graft", "setting": "[3]; Patient 3", "result": "Psoriasiform"},
      {"measurement": "Proliferation Index of individual skin graft", "setting": "[3]; Patient 3", "result": 33.5, "unit": "%"},
      {"measurement": "Epidermal Thickness of individual skin graft", "setting": "[3]; Patient 4", "result": 333, "unit": "μm"},
      {"measurement": "Histological Evaluation of individual skin graft", "setting": "[3]; Patient 4", "result": "Complete recovery"},
      {"measurement": "Proliferation Index of individual skin graft", "setting": "[3]; Patient 4", "result": 12.2, "unit": "%"},
      {"measurement": "Epidermal Thickness of individual skin graft", "setting": "[3]; Patient 5", "result": 457, "unit": "μm"},
      {"measurement": "Histological Evaluation of individual skin graft", "setting": "[3]; Patient 5", "result": "Complete recovery"},
      {"measurement": "Proliferation Index of individual skin graft", "setting": "[3]; Patient 5", "result": 9.2, "unit": "%"},
      {"measurement": "Epidermal Thickness of individual skin graft", "setting": "[3]; Patient 6", "result": 627, "unit": "μm"},
      {"measurement": "Histological Evaluation of individual skin graft", "setting": "[3]; Patient 6", "result": "Complete recovery"},
      {"measurement": "Proliferation Index of individual skin graft", "setting": "[3]; Patient 6", "result": 21.4, "unit": "%"},
      {"measurement": "Epidermal Thickness of individual skin graft", "setting": "[3]; Patient 7", "result": 1324, "unit": "μm"},
      {"measurement": "Histological Evaluation of individual skin graft", "setting": "[3]; Patient 7", "result": "Psoriasiform"},
      {"measurement": "Proliferation Index of individual skin graft", "setting": "[3]; Patient 7", "result": 17.5, "unit": "%"}
    ]}
  ]
}
